Measured values from publication PMC7898037, “Improving mitochondria and ER stability helps eliminate upper motor neuron degeneration that occurs due to mSOD1 toxicity and TDP‐43 pathology” (Clinical and Translational Medicine, 2021).

Experiment: Weight of the mice
Format: in vivo
Design: Mean Diff. of weight, vehicle vs. NU-9: unit not given here
Details: for Mean weight (Mean 2): WT-UeGFP mice, in g (unit assumed); for Weight, Average: WT-UeGFP
Procedure: hSOD1^G93A‐UeGFP, prpTDP‐43^A315T‐UeGFP and WT‐UeGFP mice were weighed and the required NU‐9 dose per weight was calculated (20 or 100 mg/kg), which was administered once daily by oral gavage, starting at postnatal day (P)60 and continuing until P120. Animals from the untreated group received the vehicle (NMP and olive oil) only. For oral administration purposes, 20 ga × 38 mm plastic feeding tubes were used (Instech Laboratories, Inc). The gavage tip was inserted into the mouth directly over the tongue and into the pharynx. While observing the swallowing reflex, the tip was safely and smoothly slid into the esophagus. Once the administration was completed, the gavage tip was pulled straight out.
Behavior data were collected from hSOD1^G93A‐UeGFP and WT‐UeGFP mice (starting at P60 and every 7 days until P116) and from prpTDP‐43^A315T‐UeGFP mice (at P60, P90, and P120) with the following number of mice for each group: WT‐UeGFP vehicle (n = 10), hSOD1^G93A‐UeGFP vehicle (n = 6), WT‐UeGFP 20 mg/kg/day NU‐9 (n = 5), hSOD1^G93A‐UeGFP 20 mg/kg/day NU‐9 (n = 7), WT‐UeGFP 100 mg/kg/day NU‐9 (n = 11), hSOD1^G93A‐UeGFP 100 mg/kg/day NU‐9 (n = 9), prpTDP‐43^A315T‐UeGFP untreated (n ≥ 3), and prpTDP‐43^A315T‐UeGFP 100 mg/kg/day NU‐9 (n = 4) (Table S3).

C[C@H](Oc1cc(C(F)(F)F)cc(C(F)(F)F)c1)C1CC(=O)CC(=O)C1 [NU‐9]
Mean Diff. of weight, vehicle vs. NU-9 (WT-UeGFP (vehicle) vs. WT-UeGFP (NU-9 20 mg/kg/day), P60, Tukey's multiple comparisons test): -0.6 | Mean Diff. of weight, vehicle vs. NU-9 (WT-UeGFP (vehicle) vs. WT-UeGFP (NU-9 20 mg/kg/day), P67, Tukey's multiple comparisons test): -1.3 | Mean Diff. of weight, vehicle vs. NU-9 (WT-UeGFP (vehicle) vs. WT-UeGFP (NU-9 20 mg/kg/day), P74, Tukey's multiple comparisons test): -0.9 | Mean Diff. of weight, vehicle vs. NU-9 (WT-UeGFP (vehicle) vs. WT-UeGFP (NU-9 20 mg/kg/day), P81, Tukey's multiple comparisons test): -0.5 | Mean Diff. of weight, vehicle vs. NU-9 (WT-UeGFP (vehicle) vs. WT-UeGFP (NU-9 20 mg/kg/day), P88, Tukey's multiple comparisons test): -0.1 | Mean Diff. of weight, vehicle vs. NU-9 (WT-UeGFP (vehicle) vs. WT-UeGFP (NU-9 20 mg/kg/day), P95, Tukey's multiple comparisons test): 0 | Mean Diff. of weight, vehicle vs. NU-9 (WT-UeGFP (vehicle) vs. WT-UeGFP (NU-9 20 mg/kg/day), P102, Tukey's multiple comparisons test): -0.2 | Mean Diff. of weight, vehicle vs. NU-9 (WT-UeGFP (vehicle) vs. WT-UeGFP (NU-9 20 mg/kg/day), P109, Tukey's multiple comparisons test): -1 | Mean Diff. of weight, vehicle vs. NU-9 (WT-UeGFP (vehicle) vs. WT-UeGFP (NU-9 20 mg/kg/day), P116, Tukey's multiple comparisons test): -1.267 | Mean Diff. of weight, vehicle vs. NU-9 (WT-UeGFP (vehicle) vs. WT-UeGFP (NU-9 100 mg/kg/day), P60, Tukey's multiple comparisons test): -0.01818 | Mean Diff. of weight, vehicle vs. NU-9 (WT-UeGFP (vehicle) vs. WT-UeGFP (NU-9 100 mg/kg/day), P67, Tukey's multiple comparisons test): -0.7545 | Mean Diff. of weight, vehicle vs. NU-9 (WT-UeGFP (vehicle) vs. WT-UeGFP (NU-9 100 mg/kg/day), P74, Tukey's multiple comparisons test): -0.2818 | Mean Diff. of weight, vehicle vs. NU-9 (WT-UeGFP (vehicle) vs. WT-UeGFP (NU-9 100 mg/kg/day), P81, Tukey's multiple comparisons test): -0.9364 | Mean Diff. of weight, vehicle vs. NU-9 (WT-UeGFP (vehicle) vs. WT-UeGFP (NU-9 100 mg/kg/day), P88, Tukey's multiple comparisons test): -0.2091 | Mean Diff. of weight, vehicle vs. NU-9 (WT-UeGFP (vehicle) vs. WT-UeGFP (NU-9 100 mg/kg/day), P95, Tukey's multiple comparisons test): -0.2 | Mean Diff. of weight, vehicle vs. NU-9 (WT-UeGFP (vehicle) vs. WT-UeGFP (NU-9 100 mg/kg/day), P102, Tukey's multiple comparisons test): -0.5636 | Mean Diff. of weight, vehicle vs. NU-9 (WT-UeGFP (vehicle) vs. WT-UeGFP (NU-9 100 mg/kg/day), P109, Tukey's multiple comparisons test): -0.2545 | Mean Diff. of weight, vehicle vs. NU-9 (WT-UeGFP (vehicle) vs. WT-UeGFP (NU-9 100 mg/kg/day), P116, Tukey's multiple comparisons test): -0.7576 | Mean weight (Mean 2) (NU-9 20 mg/kg/day, P60): 18.4 | Mean weight (Mean 2) (NU-9 20 mg/kg/day, P67): 19 | Mean weight (Mean 2) (NU-9 20 mg/kg/day, P74): 18.8 | Mean weight (Mean 2) (NU-9 20 mg/kg/day, P81): 18.2 | Mean weight (Mean 2) (NU-9 20 mg/kg/day, P88): 18.8 | Mean weight (Mean 2) (NU-9 20 mg/kg/day, P95): 18.8 | Mean weight (Mean 2) (NU-9 100 mg/kg/day, P60): 17.82 | Mean weight (Mean 2) (NU-9 100 mg/kg/day, P67): 18.45 | Mean weight (Mean 2) (NU-9 100 mg/kg/day, P74): 18.18 | Mean weight (Mean 2) (NU-9 100 mg/kg/day, P81): 18.64 | Mean weight (Mean 2) (NU-9 100 mg/kg/day, P88): 18.91 | Mean weight (Mean 2) (NU-9 100 mg/kg/day, P95): 19 | Weight, Average (NU-9 20 mg/kg/day po, P60): 18.4 g | Weight, Average (NU-9 20 mg/kg/day po, P67): 19 g | Weight, Average (NU-9 20 mg/kg/day po, P74): 18.8 g | Weight, Average (NU-9 20 mg/kg/day po, P81): 18.2 g | Weight, Average (NU-9 20 mg/kg/day po, P88): 18.8 g | Weight, Average (NU-9 20 mg/kg/day po, P95): 18.8 g | Weight, Average (NU-9 20 mg/kg/day po, P102): 19 g | Weight, Average (NU-9 20 mg/kg/day po, P109): 20.2 g | Weight, Average (NU-9 20 mg/kg/day po, P116): 20.6 g | Weight, Average (NU-9 100 mg/kg/day po, P60): 17.8182 g | Weight, Average (NU-9 100 mg/kg/day po, P67): 18.6 g | Weight, Average (NU-9 100 mg/kg/day po, P74): 18.1 g | Weight, Average (NU-9 100 mg/kg/day po, P81): 18.7 g | Weight, Average (NU-9 100 mg/kg/day po, P88): 18.9 g | Weight, Average (NU-9 100 mg/kg/day po, P95): 19 g | Weight, Average (NU-9 100 mg/kg/day po, P102): 19.5 g | Weight, Average (NU-9 100 mg/kg/day po, P109): 19.6 g | Weight, Average (NU-9 100 mg/kg/day po, P116): 20.3 g | Mean Diff. of weight, vehicle vs. NU-9 (hSOD1G93A-UeGFP (vehicle) vs. hSOD1G93A-UeGFP (NU-9 20 mg/kg/day), P60, Tukey's multiple comparisons test): 0.6667 | Mean Diff. of weight, vehicle vs. NU-9 (hSOD1G93A-UeGFP (vehicle) vs. hSOD1G93A-UeGFP (NU-9 20 mg/kg/day), P67, Tukey's multiple comparisons test): 0.6429 | Mean Diff. of weight, vehicle vs. NU-9 (hSOD1G93A-UeGFP (vehicle) vs. hSOD1G93A-UeGFP (NU-9 20 mg/kg/day), P74, Tukey's multiple comparisons test): 0.2381
